Measurements: PMC11532403 (Signal Transduction and Targeted Therapy, 2024)
Like-named read-outs stand apart in the source and are kept apart here.

What was measured:
[1] = Phase 1 trial: plasma pharmacokinetics; assay type: in vivo; details: human; for AUC(0-t): read-out: AUC0–12 h mean; for MRT inf: read-out: MRTINF_obs mean
From the text: Serial plasma samples were also collected in each patient after the first dose and during multiple-dose administration on Cycle 1 Day 28.

[2] = system: RET phosphorylation in BaF3-CCDC6-RET^WT cells; assay: RET signaling pathway phosphorylation in cells; assay type: cell-based
[3] = 200 mg, Cycle 1 Day 28, 200 mg BID (n = 5)
[4] = oral, 20 mg, Cycle 1 Day 28, 20 mg BID (n = 1)
[5] = oral, 20 mg, Cycle 1 Day 28, 20 mg QD (n = 1)
[6] = oral, 40 mg, Cycle 1 Day 28, 40 mg BID (n = 3)
[7] = oral, 80 mg, Cycle 1 Day 28, 80 mg BID (n = 3)
[8] = oral, 120 mg, Cycle 1 Day 28, 120 mg BID (n = 3)
[9] = oral, 200 mg, Cycle 1 Day 1, 200 mg BID (n = 9)

Work on `COc1ccc(CN2C3CC2CN(c2ccc(-c4cc(N5CC(C)(O)C5)cn5ncc(C#N)c45)cn2)C3)cn1` [SY-5007, 6-(3-hydroxy-3-methylazetidin-1-yl)-4-(6-(6-((6-methoxypyridin-3-yl)methyl)-3,6-diazabicyclo[3.1.1]heptan-3-yl)pyridin-3-yl)pyrazolo[1,5-a]pyridine-3-carbonitrile] yielded a Tmax ([1]; 160 mg, Cycle 1 Day 28, 160 mg BID (n = 15), read-out: Tmax mean) of 2 h, an AUC(0-t) [1, 3] of 41100 ng·h/mL and an AUC(0-inf) ([1]; 200 mg, Cycle 1 Day 28, 200 mg BID (n = 5), read-out: AUCINF_obs mean) of 63700 ng·h/mL. For the same compound, the Cmax ([1]; 200 mg, Cycle 1 Day 28, 200 mg BID (n = 5), read-out: Cmax mean) was 5520 ng/mL, the MRT inf [1, 3] was 10.8 h and the half-life ([1]; 200 mg, Cycle 1 Day 28, 200 mg BID (n = 5), read-out: T1/2 mean (converted)) was 7 h. The Tmax ([1]; 200 mg, Cycle 1 Day 28, 200 mg BID (n = 5), read-out: Tmax mean) was 2 h, the AUC(0-t) [1, 4] was 2940 ng·h/mL and the AUC(0-inf) ([1]; oral, 20 mg, Cycle 1 Day 28, 20 mg BID (n = 1), read-out: AUCINF_obs mean) was 4020 ng·h/mL. For the same compound, the Cmax ([1]; oral, 20 mg, Cycle 1 Day 28, 20 mg BID (n = 1), read-out: Cmax mean) was 640 ng/mL, the MRT inf [1, 4] was 9 h and the half-life ([1]; oral, 20 mg, Cycle 1 Day 28, 20 mg BID (n = 1), read-out: T1/2 mean (converted)) was 7.3 h. For the same compound, the Tmax ([1]; oral, 20 mg, Cycle 1 Day 28, 20 mg BID (n = 1), read-out: Tmax mean) was 0.5 h, the AUC(0-t) [1, 5] was 2200 ng·h/mL and the AUC(0-inf) ([1]; oral, 20 mg, Cycle 1 Day 28, 20 mg QD (n = 1), read-out: AUCINF_obs mean) was 2340 ng·h/mL. The Cmax ([1]; oral, 20 mg, Cycle 1 Day 28, 20 mg QD (n = 1), read-out: Cmax mean) was 388 ng/mL, the MRT inf [1, 5] was 7.7 h and the half-life ([1]; oral, 20 mg, Cycle 1 Day 28, 20 mg QD (n = 1), read-out: T1/2 mean (converted)) was 6 h. For the same compound, the Tmax ([1]; oral, 20 mg, Cycle 1 Day 28, 20 mg QD (n = 1), read-out: Tmax mean) was 1 h, the AUC(0-t) [1, 6] was 5810 ng·h/mL and the AUC(0-inf) ([1]; oral, 40 mg, Cycle 1 Day 28, 40 mg BID (n = 3), read-out: AUCINF_obs mean) was 7100 ng·h/mL. For the same compound, the Cmax ([1]; oral, 40 mg, Cycle 1 Day 28, 40 mg BID (n = 3), read-out: Cmax mean) was 1280 ng/mL, the MRT inf [1, 6] was 6.8 h and the half-life ([1]; oral, 40 mg, Cycle 1 Day 28, 40 mg BID (n = 3), read-out: T1/2 mean (converted)) was 5 h. The Tmax ([1]; oral, 40 mg, Cycle 1 Day 28, 40 mg BID (n = 3), read-out: Tmax mean) was 0.5 h, the AUC(0-t) [1, 7] was 12600 ng·h/mL and the AUC(0-inf) ([1]; oral, 80 mg, Cycle 1 Day 28, 80 mg BID (n = 3), read-out: AUCINF_obs mean) was 18800 ng·h/mL. It also gave a Cmax ([1]; oral, 80 mg, Cycle 1 Day 28, 80 mg BID (n = 3), read-out: Cmax mean) of 1960 ng/mL, an MRT inf [1, 7] of 8.2 h and a half-life ([1]; oral, 80 mg, Cycle 1 Day 28, 80 mg BID (n = 3), read-out: T1/2 mean (converted)) of 5.5 h. The Tmax ([1]; oral, 80 mg, Cycle 1 Day 28, 80 mg BID (n = 3), read-out: Tmax mean) was 1 h, the AUC(0-t) [1, 8] was 21500 ng·h/mL and the AUC(0-inf) ([1]; oral, 120 mg, Cycle 1 Day 28, 120 mg BID (n = 3), read-out: AUCINF_obs mean) was 34000 ng·h/mL. The Cmax ([1]; oral, 120 mg, Cycle 1 Day 28, 120 mg BID (n = 3), read-out: Cmax mean) was 2870 ng/mL, the MRT inf [1, 8] was 10.5 h and the half-life ([1]; oral, 120 mg, Cycle 1 Day 28, 120 mg BID (n = 3), read-out: T1/2 mean (converted)) was 7 h. The Tmax ([1]; oral, 120 mg, Cycle 1 Day 28, 120 mg BID (n = 3), read-out: Tmax mean) was 1 h, the AUC(0-t) [1, 9] was 14900 ng·h/mL and the AUC(0-inf) ([1]; oral, 200 mg, Cycle 1 Day 1, 200 mg BID (n = 9), read-out: AUCINF_obs mean) was 21600 ng·h/mL. The Cmax ([1]; oral, 200 mg, Cycle 1 Day 1, 200 mg BID (n = 9), read-out: Cmax mean) was 3180 ng/mL, the MRT inf [1, 9] was 15 h and the half-life ([1]; oral, 200 mg, Cycle 1 Day 1, 200 mg BID (n = 9), read-out: T1/2 mean (converted)) was 23.9 h. For the same compound, the Tmax ([1]; oral, 200 mg, Cycle 1 Day 1, 200 mg BID (n = 9), read-out: Tmax mean) was 1 h, the AUC(0-inf) ([1]; oral, single dose, 20 mg to 160 mg, read-out: AUCINF_obs range) was 2410 to 21300 ng·h/mL and the Cmax ([1]; oral, single dose, 20 mg to 160 mg, read-out: Cmax range) was 214 to 3470 ng/mL. The half-life ([1]; oral, single dose, read-out: Mean T1/2 across dose cohorts) was 6.8 to 44.4 h, the Tmax ([1]; oral, single dose, read-out: Mean Tmax across dose cohorts) was 0.5 to 4 h and the “Concentration at which effect reaches saturation” value [2] was 10 nM. For the same compound, the “Concentration significantly inhibiting RET phosphorylation” value [2] was 1 nM.
